Values after ≈ are worked out from the molar mass of the structure shown. Where only a bound is given, the exact number is not on record here.

Ki and MIC data for five compounds are collected here from ChEMBL document CHEMBL2331254, “Pyrrolopyrimidine inhibitors of DNA gyrase B (GyrB) and topoisomerase IV (ParE), Part II: development of inhibitors with broad spectrum, Gram-negative antibacterial activity” (Bioorg Med Chem Lett, 2013).

Test [1] is described as follows: Inhibition of Francisella tularensis parE assessed as release of inorganic phosphate from ATP hydrolysis after 30 mins by coupled spectrophotometric assay.
Test [2] has as its system Staphylococcus aureus. Description: Antibacterial activity against Staphylococcus aureus ATCC 13709 by broth microdilution method. It counts as functional. (Dilution methods test growth across graded concentrations, often in twofold steps.)
The next test deals with Acinetobacter baumannii. Description: Antibacterial activity against Acinetobacter baumannii ATCC 19606 by broth microdilution method. Format: functional. The following applies: ATCC 19606 = CIP 70.34 = JCM 6841.
The test system of the next test is Klebsiella pneumoniae. Description: Antibacterial activity against Klebsiella pneumoniae ATCC 700603 by broth microdilution method. It counts as functional.
The test system of test [3] is Escherichia coli. Briefly: Antibacterial activity against wild type Escherichia coli ATCC 25922 by broth microdilution method in presence of 20% mouse serum. Format: functional.
A further test has as its system Haemophilus influenzae. Description: Antibacterial activity against Haemophilus influenzae ATCC 49247 by broth microdilution method. Format: functional.
A further test concerns Pseudomonas aeruginosa. Description: Antibacterial activity against Pseudomonas aeruginosa PAO1 by broth microdilution method. It counts as functional.
Test [4] deals with Escherichia coli. Description: Antibacterial activity against permeabilized Escherichia coli IBAS849 by broth microdilution method. It counts as functional.
Test [5] has as its system Staphylococcus aureus. Description: Antibacterial activity against Staphylococcus aureus ATCC 13709 by broth microdilution method in presence of 20% mouse serum. Format: functional.
For test [6], the system named is Escherichia coli. Description: Antibacterial activity against wild type Escherichia coli ATCC 25922 by broth microdilution method. It counts as functional.
The nature of test [7]: Inhibition of Escherichia coli GyrB assessed as release of inorganic phosphate from ATP hydrolysis after 30 mins by coupled spectrophotometric assay.
The nature of test [8]: Inhibition of Francisella tularensis GyrB assessed as release of inorganic phosphate from ATP hydrolysis after 30 mins by coupled spectrophotometric assay.
Test [9] can be described thus: Inhibition of Escherichia coli parE assessed as release of inorganic phosphate from ATP hydrolysis after 30 mins by coupled spectrophotometric assay.
Another test deals with Streptococcus pneumoniae. Briefly: Antibacterial activity against Streptococcus pneumoniae ATCC 51916 by broth microdilution method. It counts as functional.
For test [10], the system named is Escherichia coli. Briefly: Antibacterial activity against Escherichia coli BW25113 harboring deltatolC by broth microdilution method. Format: functional.

The Ki is a measure of affinity in units of concentration, obtained from inhibition or displacement. With `CCc1[nH]c2nc(Oc3cncnc3)nc(N3C[C@@H]4[C@@H](N)[C@@H]4C3)c2c1Cl`, the Ki in test [1] was 1.8 nM; in test [7], 0.4 nM; in test [8] it was < 0.3 nM; in test [9] it was 3.4 nM. Also, the MIC was determined as 1 µg/mL (≈ 2.69 µM) in the test on Staphylococcus aureus [2]; 16 µg/mL (≈ 43 µM) in the test on Acinetobacter baumannii; 64 µg/mL (≈ 172 µM) against Klebsiella pneumoniae; 2 µg/mL in the test on Escherichia coli [3]; 4 µg/mL (≈ 10.8 µM) against Haemophilus influenzae; 32 µg/mL (≈ 86.1 µM) with Pseudomonas aeruginosa. Further, the MIC is 1 µg/mL (≈ 2.69 µM) in the test with Escherichia coli [4]; 2 µg/mL with Staphylococcus aureus [5]; 4 µg/mL (≈ 10.8 µM) against Escherichia coli [6]; 2 µg/mL (≈ 5.38 µM) against Streptococcus pneumoniae; 2 µg/mL (≈ 5.38 µM) against Escherichia coli [10].

In the case of `CCc1[nH]c2nc(Oc3cnc4cccnc4c3)nc(N3C[C@@H]4[C@@H](N)[C@@H]4C3)c2c1Cl`, the Ki in test [1] was 0.6 nM; in test [7], < 0.3 nM; in [9] it was 0.9 nM. The MIC in the test on Staphylococcus aureus [2] was ≤ 0.06 µg/mL; against Acinetobacter baumannii, 4 µg/mL (≈ 9.48 µM); in the test with Klebsiella pneumoniae, 32 µg/mL (≈ 75.8 µM); in the test on Escherichia coli [3], 4 µg/mL; with Haemophilus influenzae, 1 µg/mL (≈ 2.37 µM); in the test on Pseudomonas aeruginosa, 8 µg/mL (≈ 19 µM). The MIC with Escherichia coli [4] was 1 µg/mL (≈ 2.37 µM); with Staphylococcus aureus [5], 0.13 µg/mL; in the test with Escherichia coli [6], 4 µg/mL (≈ 9.48 µM); in the test with Streptococcus pneumoniae, ≤ 0.06 µg/mL; in the test with Escherichia coli [10] it was ≤ 0.06 µg/mL.

Consider `CCc1[nH]c2nc(Oc3cnc4ccc[n+]([O-])c4c3)nc(N3CC[C@@H](N)C3)c2c1Cl`, for which the figures for the Ki in [1], in test [7] and in test [9] were 1.1 nM, < 0.3 nM and 4.6 nM, respectively. In addition, the MIC against Staphylococcus aureus [2] came out at 0.13 µg/mL (≈ 0.305 µM); in the test on Acinetobacter baumannii it was 8 µg/mL (≈ 18.8 µM); in the test on Klebsiella pneumoniae, 32 µg/mL (≈ 75.1 µM); with Escherichia coli [3] it was 2 µg/mL; against Haemophilus influenzae, 4 µg/mL (≈ 9.39 µM); against Pseudomonas aeruginosa it was 16 µg/mL (≈ 37.6 µM). Moreover, the MIC came to 1 µg/mL (≈ 2.35 µM) against Escherichia coli [4]; 0.13 µg/mL with Staphylococcus aureus [5]; 4 µg/mL (≈ 9.39 µM) in the test with Escherichia coli [6]; 1 µg/mL (≈ 2.35 µM) in the test with Streptococcus pneumoniae; 0.5 µg/mL (≈ 1.17 µM) with Escherichia coli [10].

On to `CCc1[nH]c2nc(Sc3cnc4cccnc4c3)nc(N3C[C@@H]4[C@@H](N)[C@@H]4C3)c2c1Cl`, for which the figures for the Ki in test [1], in [7] and in test [9] were 0.6 nM, < 0.3 nM and < 1 nM, respectively. For the same compound, the MIC against Staphylococcus aureus [2] is ≤ 0.06 µg/mL; against Acinetobacter baumannii, 8 µg/mL (≈ 18.3 µM); in the test with Klebsiella pneumoniae, > 64 µg/mL; in the test with Escherichia coli [3] it was 8 µg/mL; in the test with Haemophilus influenzae, 4 µg/mL (≈ 9.13 µM); against Pseudomonas aeruginosa it was 8 µg/mL (≈ 18.3 µM). Further, the MIC in the test on Escherichia coli [4] is 1 µg/mL (≈ 2.28 µM); in the test with Staphylococcus aureus [5] it was 0.5 µg/mL; in the test on Escherichia coli [6], 4 µg/mL (≈ 9.13 µM); against Streptococcus pneumoniae, 0.13 µg/mL (≈ 0.297 µM); in the test with Escherichia coli [10], 0.25 µg/mL (≈ 0.571 µM).

On to `CCc1[nH]c2nc(Sc3cnc4ccc[n+]([O-])c4c3)nc(N3C[C@@H]4[C@@H](N)[C@@H]4C3)c2c1Cl`, for which the Ki in test [1] is 2.5 nM; in [7] it was < 0.3 nM; in [9], 1.7 nM. Also, the MIC against Staphylococcus aureus [2] turned out to be 0.03 µg/mL (≈ 0.0661 µM); with Acinetobacter baumannii it was 4 µg/mL (≈ 8.81 µM); with Klebsiella pneumoniae it was 32 µg/mL (≈ 70.5 µM); with Escherichia coli [3] it was 4 µg/mL; in the test on Haemophilus influenzae, 2 µg/mL (≈ 4.41 µM); with Pseudomonas aeruginosa, 4 µg/mL (≈ 8.81 µM). Also, the MIC against Escherichia coli [4] was 0.13 µg/mL (≈ 0.286 µM); in the test with Staphylococcus aureus [5] it was 0.13 µg/mL; against Escherichia coli [6], 2 µg/mL (≈ 4.41 µM); in the test with Streptococcus pneumoniae, 0.25 µg/mL (≈ 0.551 µM); in the test with Escherichia coli [10], 0.13 µg/mL (≈ 0.286 µM).
